19 compounds from ChEMBL document CHEMBL1156703, “Antitumor studies -- part 2: structure-activity relationship study for flavin analogs including investigations on their in vitro antitumor assay and docking simulation into protein tyrosine kinase” (Eur J Med Chem, 2008) can be followed below.

≈ marks a conversion by molar mass, not a printed value.

Test [1] addresses Protein kinase C (PKC). Put plainly: Inhibition of rat brain protein kinase C.
The test system of test [2] is KB. Put plainly: Growth inhibition of human KB cells by MTT assay. It counts as functional, cell-based.

The term IC50 denotes the midpoint of a concentration-inhibition curve. In test [1], `C[C@H]1CNCCN1S(=O)(=O)c1cccc2cnccc12` came in with an IC50 of 38.4 µg/mL (≈ 132 µM). The same measure, in the same setting: the figure for `CCn1c2nc(-c3ccccc3)nc(=O)c-2cc2ccccc21` is 12.9 µg/mL (≈ 42.8 µM). Turning to `Cc1ccc2c(c1)cc1c(=O)nc(-c3ccccc3)nc-1n2C`, the figures for the IC50 in test [2] and in test [1] were 1.17 µg/mL (≈ 3.88 µM) and 4.55 µg/mL (≈ 15.1 µM), respectively.

Regarding `Cn1c2nc(N)nc(=O)c-2cc2ccccc21`, the IC50 in test [1] is 14.8 µg/mL (≈ 65.4 µM). For the compound `Cn1c2nc(-c3ccccc3)nc(=O)c-2cc2ccccc21`, in test [1], the IC50 was 3.54 µg/mL (≈ 12.3 µM).

Consider `CCCCCCCCCCCCn1c2nc(=O)[nH]c(=O)c-2cc2ccc(Cl)cc21`, for which the figures for the IC50 in test [2] and in test [1] were greater than 10 µg/mL and greater than 100 µg/mL, respectively. As to `O=c1nc2n(-c3ccccc3)c3ccccc3cc-2c(=O)[nH]1`, the 50% inhibitory concentration (IC50) in test [2] was greater than 10 µg/mL; in test [1], greater than 100 µg/mL. The matching figures for `Cn1c(=O)nc2n(-c3ccccc3)c3ccccc3cc-2c1=O`: greater than 10 µg/mL and greater than 100 µg/mL.

As for `Cn1c2nc(=O)n(-c3ccccc3)c(=O)c-2cc2ccccc21`, the IC50 in test [2] is greater than 10 µg/mL; in test [1], 60.1 µg/mL (≈ 198 µM). For `O=c1nc2n(-c3ccccc3)c3ccccc3cc-2c(=O)n1-c1ccccc1`, the IC50 in test [2] is greater than 10 µg/mL; in test [1], greater than 100 µg/mL. In turn, `CCCCn1c2nc(-c3ccccc3)nc(=O)c-2cc2ccccc21` had an IC50 in test [2] of 2.53 µg/mL (≈ 7.68 µM). Regarding `CCn1c2nc(=O)n(C)c(=O)c-2cc2ccccc21`, the IC50 is greater than 10 µg/mL in test [2] and 46.6 µg/mL (≈ 183 µM) in test [1]. As to `Cc1ccc2c(c1)cc1c(=O)n(C)c(=O)nc-1n2-c1ccccc1`, the half-maximal inhibitory concentration (IC50) in test [2] is greater than 10 µg/mL; in test [1] it was 26.4 µg/mL (≈ 83.2 µM). With `CCCCn1c2nc(=O)[nH]c(=O)c-2cc2ccccc21`, the IC50 in test [2] is greater than 10 µg/mL; in test [1], 89.7 µg/mL (≈ 333 µM).

For `CCCn1c2nc(=O)n(C)c(=O)c-2cc2ccccc21`, the IC50 in test [2] is greater than 10 µg/mL; in test [1] it was 46 µg/mL (≈ 171 µM). The matching figures for `CCn1c2nc(=O)n(-c3ccccc3)c(=O)c-2cc2ccccc21`: greater than 10 µg/mL and 53.3 µg/mL (≈ 168 µM). With `CCn1c2nc(=O)[nH]c(=O)c-2cc2cc(C)ccc21`, the IC50 in test [2] was greater than 10 µg/mL; in test [1], 10 µg/mL (≈ 39.2 µM). For `CCCCn1c2nc(=O)n(C)c(=O)c-2cc2ccccc21`, the IC50 in test [2] was greater than 10 µg/mL; in test [1] it was 23.9 µg/mL (≈ 84.4 µM). In test [2], `Nc1ccn([C@@H]2O[C@H](CO)[C@@H](O)[C@@H]2O)c(=O)n1` [CYTARABINE] gave an IC50 of 0.14 µg/mL (≈ 0.576 µM).
